Source: patent US20230210825A1, “METHODS AND COMPOSITIONS FOR TREATING SUBJECTS WITH METABOLIC DISORDERS AND CORONAVIRUS INFECTIONS” (CIRIUS THERAPEUTICS, INC., priority 2020, published 2023)

What was measured:
[1] = target: T1, organic anion transporter 3 (OAT3) (Homo sapiens, UniProt Q8TCC7); test: OAT3 inhibition
T1 sequence (Q8TCC7 1-542): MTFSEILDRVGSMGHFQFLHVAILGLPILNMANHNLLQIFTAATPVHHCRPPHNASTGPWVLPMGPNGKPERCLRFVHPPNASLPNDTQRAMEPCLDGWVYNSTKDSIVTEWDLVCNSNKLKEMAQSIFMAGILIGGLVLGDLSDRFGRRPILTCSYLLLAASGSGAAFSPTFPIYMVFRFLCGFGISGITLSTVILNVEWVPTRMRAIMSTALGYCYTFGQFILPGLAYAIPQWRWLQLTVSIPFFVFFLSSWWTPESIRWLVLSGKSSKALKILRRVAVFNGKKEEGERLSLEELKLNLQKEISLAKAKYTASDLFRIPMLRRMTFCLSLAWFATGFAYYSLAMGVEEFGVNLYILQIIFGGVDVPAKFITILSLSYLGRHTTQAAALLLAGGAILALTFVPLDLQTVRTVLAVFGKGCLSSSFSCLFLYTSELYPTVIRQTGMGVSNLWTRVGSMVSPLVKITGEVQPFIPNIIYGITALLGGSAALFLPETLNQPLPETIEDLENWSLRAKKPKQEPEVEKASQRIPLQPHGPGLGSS

[2] = target: CYP2C8 (Homo sapiens, UniProt P10632)
[3] = target: T2, PPARγ (Homo sapiens, UniProt P37231); test: Relative binding affinity for PPARγ (FIG. 1); conditions: FIG. 1, relative binding affinity
T2 sequence (P37231 1-505): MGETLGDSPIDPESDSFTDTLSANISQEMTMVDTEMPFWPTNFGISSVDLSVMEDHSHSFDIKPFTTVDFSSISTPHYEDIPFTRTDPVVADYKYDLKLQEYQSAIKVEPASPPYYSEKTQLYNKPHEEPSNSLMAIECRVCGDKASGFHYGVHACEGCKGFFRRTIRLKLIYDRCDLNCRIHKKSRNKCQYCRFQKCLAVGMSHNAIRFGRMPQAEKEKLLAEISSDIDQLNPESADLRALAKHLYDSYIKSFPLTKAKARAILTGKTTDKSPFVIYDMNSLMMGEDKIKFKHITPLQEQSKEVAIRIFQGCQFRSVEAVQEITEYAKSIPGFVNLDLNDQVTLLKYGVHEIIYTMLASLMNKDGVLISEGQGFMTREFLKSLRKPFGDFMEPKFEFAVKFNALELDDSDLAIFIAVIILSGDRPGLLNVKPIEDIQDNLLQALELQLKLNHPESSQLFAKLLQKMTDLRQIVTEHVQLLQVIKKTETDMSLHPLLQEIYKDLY

[4] = target: T3, mitochondrial pyruvate carrier (MPC) (Homo sapiens, UniProt O95563+Q9Y5U8); test: Relative binding affinity for the MPC (FIG. 2)
T3 sequence (Q9Y5U8 1-109): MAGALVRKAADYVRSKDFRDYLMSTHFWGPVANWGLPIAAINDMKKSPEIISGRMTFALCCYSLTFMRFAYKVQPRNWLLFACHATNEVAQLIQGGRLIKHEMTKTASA
T3 sequence (O95563 1-127): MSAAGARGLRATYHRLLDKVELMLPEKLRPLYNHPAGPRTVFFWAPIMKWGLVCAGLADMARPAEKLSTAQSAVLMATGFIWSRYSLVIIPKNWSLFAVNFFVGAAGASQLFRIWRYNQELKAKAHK

[5] = metabolite share of combined exposure after MSDC-0602
[6] = tested on: mouse model of a metabolic disorder; conditions: reported earlier; effects require MPC expression in hepatocytes; cited from earlier work
[7] = target: multidrug resistance protein 1 (MDR1) (Homo sapiens, UniProt P08183); test: MDR1 inhibition
[8] = Earlier phase 2 trials: adiponectin at 28 days; set-up: species or system human; conditions: in vivo
[9] = target: T4, breast cancer-related protein (BCRP) (Homo sapiens, UniProt Q9UNQ0); test: BCRP inhibition; conditions: not told
T4 sequence (Q9UNQ0 1-655): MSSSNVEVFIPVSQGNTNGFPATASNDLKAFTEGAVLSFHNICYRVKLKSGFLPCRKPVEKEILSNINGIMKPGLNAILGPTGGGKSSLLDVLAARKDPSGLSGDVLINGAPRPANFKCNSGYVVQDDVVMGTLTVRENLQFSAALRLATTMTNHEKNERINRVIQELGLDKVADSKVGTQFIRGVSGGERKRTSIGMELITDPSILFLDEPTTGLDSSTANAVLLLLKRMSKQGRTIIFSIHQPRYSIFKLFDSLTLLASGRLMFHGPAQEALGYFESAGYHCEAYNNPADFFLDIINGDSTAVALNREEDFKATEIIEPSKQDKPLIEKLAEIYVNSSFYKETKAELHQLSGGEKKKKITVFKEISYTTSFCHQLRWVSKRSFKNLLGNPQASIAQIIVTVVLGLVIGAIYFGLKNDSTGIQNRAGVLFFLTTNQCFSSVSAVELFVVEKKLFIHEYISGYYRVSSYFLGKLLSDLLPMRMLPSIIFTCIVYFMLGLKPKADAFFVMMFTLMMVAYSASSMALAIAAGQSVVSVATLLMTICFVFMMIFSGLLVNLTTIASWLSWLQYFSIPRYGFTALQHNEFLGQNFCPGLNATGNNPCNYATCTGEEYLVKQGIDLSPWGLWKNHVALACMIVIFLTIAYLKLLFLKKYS

Sequence of CYP2C8 (P10632 whole entry): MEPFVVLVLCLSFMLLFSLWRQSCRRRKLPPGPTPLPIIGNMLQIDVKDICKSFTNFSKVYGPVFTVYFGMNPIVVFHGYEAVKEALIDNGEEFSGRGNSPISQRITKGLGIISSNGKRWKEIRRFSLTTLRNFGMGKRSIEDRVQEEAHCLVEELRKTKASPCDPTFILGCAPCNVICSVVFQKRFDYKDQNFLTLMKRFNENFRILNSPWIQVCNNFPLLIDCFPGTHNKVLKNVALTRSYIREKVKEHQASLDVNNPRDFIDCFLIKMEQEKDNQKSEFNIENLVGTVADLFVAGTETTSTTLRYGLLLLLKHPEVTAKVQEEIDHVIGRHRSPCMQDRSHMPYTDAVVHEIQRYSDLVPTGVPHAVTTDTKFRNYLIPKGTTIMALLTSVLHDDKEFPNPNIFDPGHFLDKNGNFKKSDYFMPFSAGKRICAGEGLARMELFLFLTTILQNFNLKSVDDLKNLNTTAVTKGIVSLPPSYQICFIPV

Row | Structure (SMILES) | inhibition of organic anion transporter 3 (OAT3) [1] | inhibition of CYP2C8 [2] | reduction in binding affinity for PPARγ compared to pioglitazone [3] | binding to the MPC [4] | share of the combined exposure [5] | damage caused to the liver [6] | inhibition of MDR1 [7] | increase in adiponectin levels [8] | inhibition of BCRP [9]
1 | COc1cccc(C(O)COc2ccc(CC3SC(=O)NC3=O)cc2)c1 (centres unmarked) [MSDC-0597] | inhibitors | weak inhibitor | more than fifty-fold | maintain, and in some cases improve, binding to the MPC | more than 90% |  |  |  | 
2 | COc1cccc(C(=O)COc2ccc(CC3SC(=O)NC3=O)cc2)c1 (centres unmarked) [MSDC-0602] | inhibitors |  |  | maintain, and in some cases improve, binding to the MPC |  | prevents and reverses damage caused to the liver | inhibitor | 146% | inhibitor
